These results are taken from patent publication US11236129B2, “IL-17A binding peptides and medical uses thereof” (Dompe' Farmaceutici S.P.A., priority 2018, dated 2022).

Series [1] deals with human corneal epithelial cells (hCEPIC). Nature of the series: Permeability test across stratified human corneal epithelial cells. To be noted: for Permeability (Papp): 50 μM, stratified human corneal epithelial cells. The series is classed as in vitro ADME. On the procedure:
(§1) The objective of this study was to evaluate the apparent permeability coefficient (Papp) value of the peptides across stratified human corneal epithelial cells. All peptides were tested at 50 μM in duplicate.
(§2) In particular, human corneal epithelial cells (hCEPIC) were stratified on Transwell cell culture inserts (Corning, N.Y., USA). The permeation experiments were performed taking samples from receiver chambers at 5, 30, 60 minutes time points and from donor chambers at the same time points. Each aliquot collected was analyzed by HPLC instrument (Knauer) equipped with C18 Vertex Plus Column (Knauer) thermostatically controlled at 40° C. The rate (apparent permeability coefficient, Papp) of the study compounds was calculated and compared to the Papp values of the low and high permeability markers, 6-carboxyfluorescein and Rhodamine B, respectively.
(§3) The apparent permeability coefficient (Papp) was calculated according to Equation: Papp=(I/A*C0)(dM/dt)
(§4) where dM/dt is the flux (nanomoles per second) across the cell layers;
(§5) A (square centimeters) is the exposed surface area of the insert membrane;
(§6) C0 is the initial drug concentration (micromolar) in the donor compartment at t=0 (Xiang et al., Drug Metab Dispos. 2009 May; 37(5):992-8.

The nature of series [2]: Isoelectric point, log D and log P (SiriusT3). The series is classed as physicochemical. To be noted: for IP (isoelectric point): 25±1° C., 0.15 M KCl.
Series [3] addresses T1, mouse IL-17A (Mus musculus, UniProt Q62386).
T1 sequence (Q62386 26-158): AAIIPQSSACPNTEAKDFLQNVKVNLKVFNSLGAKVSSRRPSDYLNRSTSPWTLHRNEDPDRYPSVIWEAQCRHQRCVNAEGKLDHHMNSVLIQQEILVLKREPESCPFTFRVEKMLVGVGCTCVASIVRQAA
Nature of the series: Peptide-IL-17A affinity test (SPR). In kind it is binding. On the procedure:
The peptide of the prior art HAP (SEQ ID NO:1) and peptide of SEQ ID NO:2 were tested for affinity for mIL-17A, as described below. For the immobilization of mouse IL-17A protein, amine coupling chemistry was used. […] Covalent immobilization of mIL17 results in stable attachment of 3000 RU of ligand to the surface. […] The molecules were diluted at different concentrations (from 62.5 to 1000 nM) in HBS-EP buffer and injected on the sensorchip for 4 minutes and allowed to dissociate for 5 minutes. After each run, the sensorchip was regenerated by 2 M NaCl injection. Based on the sensorgrams (FIG. 1, panel A) and using the BIAevaluation software, the Scatchard analysis of the RU values at equilibrium allowed to determine an affinity constant as a function of the analyte concentration in solution (FIG. 6, panel B).

The nature of series [4]: Permeability test across stratified human corneal epithelial cells. The series is classed as in vitro ADME. On the procedure: as §1, §2, §3, §4, §5, §6
The format of series [5] is physicochemical. To be noted: pH 7.8. An outline of the steps:
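Peptides dissolved in phosphate buffer pH 7.8 as 10 mM stocks (more dilute for less soluble ones) and stored at 25 °C. Content measured by reversed-phase UHPLC (C18, 0.5% formic acid water/acetonitrile gradient, DAD 220-400 nm, ESI-MS ion trap) after 1:100 dilution to 100 μM, against 100 μM standards, at T0, 3 days and 1 week.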

The target of series [6] is IL-17RA/IL17RC dimerization induced by IL-17A (Homo sapiens, UniProt Q16552). The series is described as follows: IL-17RA/IL17RC dimerization assay in response to IL-17A (PathHunter Cytokine Receptor Assay). The series is classed as cell-based. To be noted: IL-17A at EC80; read-out: IC50 in IL-17RA/IL7RC dimerization assay. The gist of the method:
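Receptor dimerization was read as chemiluminescence from complemented β-galactosidase after IL-17A at EC80 concentration for 6–16 h at 37 °C. Peptides were added 60 min before agonist, at 37 °C or room temperature, with 1% vehicle. Percent inhibition used the EC80-stimulated and vehicle wells as references.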

The target in series [7] is T2, IL-17A (Homo sapiens, UniProt Q16552).
T2 construct: host or cells: psoriasis patients (endogenous IL-17A)
T2 sequence (Q16552 24-155): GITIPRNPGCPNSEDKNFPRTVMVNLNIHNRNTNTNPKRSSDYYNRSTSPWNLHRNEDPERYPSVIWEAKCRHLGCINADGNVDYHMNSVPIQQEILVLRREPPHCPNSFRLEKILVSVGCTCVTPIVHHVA
To be noted: psoriasis, clinical trials; cited from earlier work.

Setting [8] is: octanol/ISA water, read-out: logP.
Where [9] appears, read: pH 7.4, pH 7.4, octanol/ISA water, read-out: Log D (7.4).

Where two headings read alike, the source gives them in different places. Residues, ends and D or L forms follow the SMILES beside them. Bounds are passed on as bounds.

Sequence of IL-17RA/IL17RC dimerization induced by IL-17A (Q16552 24-155): as above

For `O=C(O)c1ccc2c(c1)C1(OC2=O)c2ccc(O)cc2Oc2cc(O)ccc21` [6-carboxyfluorescein, reference compound], in series [1], the “Permeability (Papp)” value is 0.61±0.33 10^−6 cm/sec.
Turning to `CCN(CC)c1ccc2c(-c3ccccc3C(=O)O)c3ccc(=[N+](CC)CC)cc-3oc2c1.[Cl-]` [Rhodamine B, reference compound], in series [1], the “Permeability (Papp)” value was 51.26±5.44 10^−6 cm/sec.
As to `CC[C@H](C)[C@H](NC(C)=O)C(=O)N[C@@H](Cc1c[nH]cn1)C(=O)N[C@H](C(=O)N[C@H](C(=O)N[C@H](C(=O)N1CCC[C@H]1C(=O)N[C@@H](C)C(=O)N[C@@H](CC(=O)O)C(=O)N[C@@H](CC(C)C)C(=O)N[C@@H](Cc1c[nH]c2ccccc12)C(=O)N[C@@H](CC(=O)O)C(=O)N[C@@H](Cc1c[nH]c2ccccc12)C(=O)N[C@H](C(=O)N[C@@H](CC(N)=O)C(=O)N[C@@H](CCCCN)C(N)=O)[C@@H](C)CC)[C@@H](C)CC)[C@@H](C)O)C(C)C` [SEQ ID NO: 1, reference compound] (Ac-IHVTIPADLWDWINK-NH2), the logP (usually the decadic logarithm of the partition coefficient of the neutral form, usually between octanol and water) in series [2] (logP) is -5.98. This molecule also registered a logD in series [2] (pH 7.4, Log D (7.4)) of -3.68. For the same molecule, the dissociation constant Kd (usually the free concentration of one partner at which half of the binding sites on the other are occupied at equilibrium, for simple one-to-one binding) in series [3] came to 3.7 µM. Moreover, the Papp in series [4] (Permeability (Papp ± SE)) and in series [4] (Permeability (Papp)) was 193 nm/s throughout. Also, the solubility (commonly the dissolved amount per volume that the medium holds) in series [5] is greater than 10000 µM.
Take `CC[C@H](C)[C@H](NC(C)=O)C(=O)N[C@@H](Cc1c[nH]cn1)C(=O)N[C@H](C(=O)N[C@H](C(=O)N[C@H](C(=O)N1CCC[C@H]1C(=O)N[C@@H](C)C(=O)N[C@@H](CC(=O)O)C(=O)N[C@@H](CC(C)C)C(=O)N[C@@H](Cc1c[nH]c2ccccc12)C(=O)N[C@@H](CC(=O)O)C(=O)N[C@@H](Cc1c[nH]c2ccccc12)C(=O)N[C@H](C(=O)N[C@@H](CCC(=O)O)C(=O)N[C@@H](CCCCN)C(N)=O)[C@@H](C)CC)[C@@H](C)CC)[C@@H](C)O)C(C)C` [SEQ ID NO: 11] (Ac-IHVTIPADLWDWIEK-NH2): the IC50 in series [6] was less than 0.4 µM. Besides, the “IP (isoelectric point)” value in series [2] turned out to be 4.25. In series [2] (logP), this molecule gave a logP of 1.05. In series [2] (pH 7.4, Log D (7.4)), the logD was -2.92. Moreover, the Papp (commonly a coefficient for how fast a substance crosses the barrier) in series [4] (Permeability (Papp)) was found to be 280 nm/s. Besides, the solubility in series [5] is greater than 10000 µM.
Consider `CC[C@H](C)[C@H](NC(C)=O)C(=O)N[C@@H](Cc1c[nH]cn1)C(=O)N[C@H](C(=O)N[C@H](C(=O)N[C@H](C(=O)N1CCC[C@H]1C(=O)N[C@@H](C)C(=O)N[C@@H](CC(=O)O)C(=O)N[C@@H](CC(C)C)C(=O)N[C@@H](Cc1c[nH]c2ccccc12)C(=O)N[C@@H](CC(=O)O)C(=O)N[C@@H](Cc1c[nH]c2ccccc12)C(=O)N[C@H](C(=O)N[C@@H](CCCNC(=N)N)C(=O)N[C@@H](CCCNC(=N)N)C(N)=O)C(C)C)[C@@H](C)CC)[C@@H](C)O)C(C)C` [SEQ ID NO: 14] (Ac-IHVTIPADLWDWVRR-NH2), for which, in series [6], the IC50 is less than 0.4 µM. Also, the “IP (isoelectric point)” value in series [2] worked out at 8.99. For the same molecule, the logP in series [2] (logP) was -5.4. Moreover, the logD in series [2] (pH 7.4, Log D (7.4)) is -2.8. In series [4] (Permeability (Papp)), the apparent permeability (Papp) stood at 289 nm/s. Moreover, the solubility in series [5] is greater than 10000 µM.
In the case of `CC[C@H](C)[C@H](NC(=O)[C@@H](NC(=O)[C@@H](NC(=O)[C@H](Cc1c[nH]cn1)NC(=O)[C@@H](NC(C)=O)C(C)C)C(C)C)[C@@H](C)O)C(=O)N1CCC[C@H]1C(=O)N[C@@H](C)C(=O)N[C@@H](CCC(=O)O)C(=O)N[C@@H](CC(C)C)C(=O)N[C@@H](Cc1c[nH]c2ccccc12)C(=O)N[C@@H](CCC(=O)O)C(=O)N[C@@H](Cc1c[nH]c2ccccc12)C(=O)N[C@H](C(=O)N[C@@H](CCCNC(=N)N)C(=O)N[C@@H](CCCNC(=N)N)C(N)=O)C(C)C` [SEQ ID NO: 111] (Ac-VHVTIPAELWEWVRR-NH2), the IC50 in series [6] is less than 0.5 µM. Moreover, in series [2], the “IP (isoelectric point)” value was determined as 8.99. The logP in series [2] (setting [8]) is -0.38. Moreover, the logD in series [2] (setting [9]) is -0.93. The molecule further returned a Papp in series [4] (Permeability (Papp)) of 837 nm/s. Moreover, in series [1], the “permeability compared to high permeability standard Rhodamine B (in words)” value is reported as “higher permeability compared to Rhodamine B”. In series [5], the solubility was less than 50 µM.
Consider `CC[C@H](C)[C@H](NC(=O)[C@H](CCC(N)=O)NC(=O)[C@@H](NC(=O)[C@H](Cc1c[nH]cn1)NC(=O)[C@@H](NC(C)=O)C(C)C)C(C)C)C(=O)N1CCC[C@H]1C(=O)N[C@@H](C)C(=O)N[C@@H](CC(=O)O)C(=O)N[C@@H](CC(C)C)C(=O)N[C@@H](Cc1c[nH]c2ccccc12)C(=O)N[C@@H](CCC(=O)O)C(=O)N[C@@H](Cc1c[nH]c2ccccc12)C(=O)N[C@H](C(=O)N[C@@H](CCCNC(=N)N)C(=O)N[C@@H](CCCNC(=N)N)C(N)=O)C(C)C` [SEQ ID NO: 113] (Ac-VHVQIPADLWEWVRR-NH2), for which the IC50 in series [6] was less than 0.5 µM. In addition, the “IP (isoelectric point)” value in series [2] is 8.99. Moreover, in series [2] (setting [8]), the lipophilicity (logP) was -0.13. The logD in series [2] (setting [9]) was -3.47. The molecule also displayed a Papp in series [4] (Permeability (Papp)) of 768 nm/s. In addition, the “permeability compared to high permeability standard Rhodamine B (in words)” value in series [1] was “higher permeability compared to Rhodamine B”. In series [5], this molecule registered a solubility of less than 50 µM.
Consider `CC[C@H](C)[C@H](NC(=O)[C@@H](NC(=O)[C@@H](NC(=O)[C@H](Cc1c[nH]cn1)NC(=O)[C@@H](NC(C)=O)C(C)C)C(C)C)[C@@H](C)O)C(=O)N1CCC[C@H]1C(=O)N[C@@H](CCC(N)=O)C(=O)N[C@@H](CC(=O)O)C(=O)N[C@@H](CC(C)C)C(=O)N[C@@H](Cc1c[nH]c2ccccc12)C(=O)N[C@@H](CCC(=O)O)C(=O)N[C@@H](Cc1c[nH]c2ccccc12)C(=O)N[C@H](C(=O)N[C@@H](CCCNC(=N)N)C(=O)N[C@@H](CCCNC(=N)N)C(N)=O)C(C)C` [SEQ ID NO: 115] (Ac-VHVTIPQDLWEWVRR-NH2), for which the IC50 in series [6] is less than 0.5 µM. In addition, the “IP (isoelectric point)” value in series [2] was determined as 8.99. Besides, the logP in series [2] (setting [8]) was -5.94. For the same molecule, the logD in series [2] (setting [9]) is -3.91. This molecule also displayed a Papp in series [4] (Permeability (Papp)) of 688 nm/s. The “permeability compared to high permeability standard Rhodamine B (in words)” value in series [1] is recorded as “higher permeability compared to Rhodamine B”. For the same molecule, the solubility in series [5] is less than 50 µM.
Turning to `CC[C@H](C)[C@H](NC(=O)[C@@H](NC(=O)[C@@H](NC(=O)[C@H](Cc1c[nH]cn1)NC(=O)[C@@H](NC(C)=O)C(C)C)C(C)C)[C@@H](C)O)C(=O)N1CCC[C@H]1C(=O)N[C@@H](C)C(=O)N[C@@H](CC(=O)O)C(=O)N[C@@H](CC(C)C)C(=O)N[C@@H](Cc1c[nH]c2ccccc12)C(=O)N[C@@H](CCC(=O)O)C(=O)N[C@@H](Cc1c[nH]c2ccccc12)C(=O)N[C@@H](Cc1ccccc1)C(=O)N[C@@H](CCCNC(=N)N)C(=O)N[C@@H](CCCNC(=N)N)C(N)=O` [SEQ ID NO: 121] (Ac-VHVTIPADLWEWFRR-NH2), in series [6], the IC50 is less than 0.5 µM. For the same molecule, the “IP (isoelectric point)” value in series [2] stood at 8.99. Further, the log partition coefficient (logP) in series [2] (setting [8]) was -0.51. Moreover, the logD in series [2] (setting [9]) was -1.47. The apparent permeability coefficient (Papp) in series [4] (Permeability (Papp)) was determined as 471 nm/s. Also, in series [5], the solubility is less than 50 µM.
Take ixekizumab: the “patient population with severity of the disease reduced by at least 75% (PASI75)” value in series [7] is reported as 80%.
secukinumab: the “patient population with severity of the disease reduced by at least 75% (PASI75)” value in series [7] is 80%.
